{"source": "patent US20210077477A1", "about": "“MICROGLIA MODULATORS FOR USE IN TREATMENT OF DEPRESSION” (priority 2018, published 2021)", "key": {"[1]": {"system": "CUS-exposed mice", "experiment": "Porsolt forced swim test in the CUS model", "assay_type": "in vivo", "procedure": "(§1) The CUS schedule comprised daily exposure to two stressors in a random order over a 5-week period. The list of CUS stressors included: cage shaking for 1 h with loud music and lights on, lights on during the entire night (12 h), lights-off for 3 h during the daylight phase, flashing (stroboscopic) light for 6 h, placement in 4° C. cold room for 1 h, mild restraint (in small ventilated cages) for 2 h, 45° cage tilt for 14 h, wet sawdust in the cage for 14 h, exposure to rat odor for 2 h, noise in the room for 3 h, and water deprivation for 12 h during the dark period.\nMice were placed in a plastic cylinder (with a height of 30 cm and diameter of 20 cm), filled with 25° C. water. The time spent immobile, defined as the absence of all movement except for motions required to maintain head above water were recorded for 6 min, and automatically analyzed off-line using the EthoVision software (Noldus)."}, "[2]": {"system": "hippocampal gene transcripts", "experiment": "qPCR validation of hippocampal gene expression", "assay_type": "in vivo", "settings": "hippocampus, CUS-exposed mice", "procedure": "Mice were sacrificed by decapitation. Each brain was quickly removed on an ice-cold glass plate, and the hippocampus was dissected out under a binocular. Tissues were weighed, flash frozen in liquid nitrogen, and stored in −80° C. until RNA extraction. RNA was extracted using PerfectPure RNA extraction kit (5 PRIME, Darmstadt, Germany). RNA samples (2 μg) were reverse transcribed using the QuantiTect Reverse Transcription Kit from Qiagen (Hilden, Germany), including DNase treatment of contaminating genomic DNA. Expression of mRNA was determined by qPCR, using glyceraldehyde-3-phosphate dehydrogenase (Gapdh) as a normalizing gene. The following list of gene transcripts was validated: Ionized calcium-binding adapter molecule 1 (Iba1), the Purinergic receptor P2yr12, Lymphocyte-activation gene 3 (Lag-3), Cd180, tryptophan 2,3-dioxygenase (Tdo2), Phospholipase A2 Group IVE (Plag24e) Sox11, and Dopamine Receptor D1 (Drd1). Primers were designed using PrimerQuest IDT (Integrated DNA Technologies, Inc, San Diego, Calif., USA). The following primers were used, Gapdh, Forward: TCTCCCTCACAATTTCC (SEQ ID NO: 1); Reverse: GGGTGCAGCGAACTTTA (SEQ ID NO: 2). Drd1, Forward: […] (SEQ ID NO: 3); Reverse: […] (SEQ ID NO: 4). Tdo2, Forward: […] (SEQ ID NO: 5); Reverse: […] (SEQ ID NO: 6). Iba1, Forward: […] (SEQ ID NO: 7); Reverse: […] (SEQ ID NO: 8). Lag-3, Forward: […] (SEQ ID NO: 9); Reverse: […] (SEQ ID NO: 10). Cd180, Forward: […] (SEQ ID NO: 11); Reverse: […] (SEQ ID NO: 12). Sox11, Forward: […] (SEQ ID NO: 13); Reverse: […] (SEQ ID NO: 14). Plag24e, Forward: […] (SEQ ID NO: 15); Reverse: […] (SEQ ID NO: 16), and P2yr12 Forward: […] (SEQ ID NO: 17); Reverse: […] (SEQ ID NO: 18). Normal and mock reversed transcribed samples (in the absence of reverse transcriptase), as well as no template controls (total mix without cDNA) were run for each of the examined mRNAs. qPCR reactions were subjected to an initial step of 15 min at 95° C. to activate the HotStar Taq DNA polymerase, followed by 40 cycles consisting of 15 s at 94° C., 30 s at 60° C. and 30 s at 72° C. Fluorescence was measured at the end of each elongation step. Data were collected and analyzed using the StepOnePlus instrument and software (Thermo Fischer Scientific), and a threshold cycle value Ct was calculated from the exponential phase of each PCR sample. Expression levels of mRNAs were calculated and expressed in relative units of SYBR Green fluorescence."}, "[3]": {"system": "CUS-exposed mice", "experiment": "Social exploration test in the CUS model", "assay_type": "in vivo", "procedure": "as §1\nEach subject was placed in an observation cage and allowed to habituate to the cage for 15 min, following which a male juvenile was placed in the cage. Social exploration, defined as the time of near contact between the nose of the subject and the juvenile conspecific, was then recorded for 2 min, using computerized in-house software."}, "[4]": {"system": "CUS-exposed mice", "experiment": "Sucrose preference test (anhedonia) in the CUS model", "assay_type": "in vivo", "procedure": "as §1\nFollowing baseline adaptation to sucrose for 3-4 days, mice were presented in the beginning of the dark circadian phase with two graduated drinking tubes, one containing tap water and the other 1% sucrose solution for 4 h. Sucrose preference was calculated as the percentage of sucrose consumption out of the total drinking volume."}, "[5]": {"system": "hippocampal neurogenesis", "experiment": "Hippocampal neurogenesis (DCX-positive cells in the DG)", "assay_type": "in vivo, mice", "settings": "CUS-exposed, PLX diet, DCX-stained cells in DG", "procedure": "Microglia were visualized using a primary antibody to the microglial marker ionized calcium-binding adapter molecule-1 (Iba-1) (rabbit anti Iba-1 1:250, Wako, Japan), followed by a secondary antibody (goat anti rabbit, 1:200; Invitrogen, Carlsbad, Calif., USA). The rate of neurogenesis in the hippocampus was measured by staining for doublecortin (DCX), using guinea pig anti-DCX (1:1,000, Millipore, Chemicon, Tamecula, Calif., USA) as the primary antibody, and biotin-SP-conjugated donkey anti-Guinea pig (1:200; Jackson Laboratories, West grove, PA, USA) as the secondary antibody, with final visualization using a conjugated streptavidin Ab (Jackson Laboratories, West grove, PA, USA). […]\nImages were captured using a Nikon Eclipse microscope and camera. Cells were manually counted using 10× magnification in a defined area exclusively containing the dentate gyrus (DG) or CA3 region of the dorsal hippocampus for each slide, using Nikon Imaging Elements Software (NIS-Elements). Four sections of each brain were counted. […] Microglia cell processes length was measured by capturing images at 40× magnification and by manual tracing of the processes of all Iba-1+ cells in these sections, using the Image)/FIJI software. […] Contacts were recorded if spatial overlap was observed on the body or on the dendrite branches of P2YR12-positive cells. […]"}, "[6]": {"system": "brain microglia", "experiment": "Microglia depletion by PLX5622 diet (IBA-1 staining)", "assay_type": "in vivo, mice", "settings": "diet containing PLX5622 for weeks, incl. hippocampus"}, "[7]": {"system": "hippocampal gene transcripts", "experiment": "RNA sequencing of hippocampal gene transcription", "assay_type": "in vivo, mice", "settings": "for Log 2 (fold change) Con-Stress-Sham vs. PLX-Stress-Sham: hippocampus", "description": "RNA Sequencing, PolyA based mRNA was selected using oligodT beads, followed by fragmentation, first strand and second strand synthesis reactions. Illumina libraries were constructed while performing the end repair, A base addition, adapter ligation and PCR amplification steps with SPRI beads cleanup in between steps. Indexed samples were pooled and sequenced in an Illumina HiSeq 2500 machine in a single read mode.\nBioinformatics analysis. Adapters were trimmed using the cutadapt tool. Following adapter removal, reads that were shorter than 40 nucleotides were discarded (cutadapt option −m 40). Reads that had either a percentage of Adenine bases above 50% or a percentage of Thymine bases above 50% were discarded using a custom script. TopHat (v2.0.10) was used to align the reads to the mouse genome (mm10). Counting reads on mm10 refseq genes (downloaded from igenomes) was done with HTSeq-count (version 0.6.1p1). Differential expression analysis was performed using DESeq2 (1.6.3). Raw p values were adjusted for multiple testing (q-value, false discovery rate)."}, "[8]": {"system": "brain microglia", "settings": "given chronically (more than 2-3 weeks); Danger et al., 2015; cited from earlier work"}, "[9]": {"settings": "PLX5622 diet, non-stressed mice"}, "[10]": {"settings": "CUS-exposed SHAM-treated mice, q<0.32, cutoff ±1.3-fold"}, "[11]": {"settings": "CUS 5 weeks, antibody 100 μg i.p. every 4 days, 6 injections, Cipralex daily i.p., 3 weeks"}}, "note": "Entries after “also recorded” stand apart in the source; their conditions may differ.", "data": [{"smiles": "COc1ncc(F)cc1CNc1ccc(Cc2c[nH]c3ncc(C)cc23)c(F)n1", "note": "[PLX5622]", "values": [{"measurement": "forced swim immobility of ECT-treated PLX mice vs CDiet mice", "setting": "[1]; CUS-exposed, ECT 2.5 weeks", "result": "significantly greater forced swim immobility"}, {"measurement": "immobility in forced swim, effect of microglia depletion by itself", "setting": "[1]; [9]", "result": "did not reduce"}, {"measurement": "Cd180 gene expression in PLX-treated mice", "setting": "[2]", "result": "lower expression levels"}, {"measurement": "Drd1 expression, effect of the microglia depletion procedure by itself", "setting": "[2]", "result": "not affected"}, {"measurement": "Iba1 expression, effect of the PLX5622 procedure", "setting": "[2]", "result": "significantly reduced"}, {"measurement": "Lag-3 transcription in PLX-treated mice", "setting": "[2]", "result": "almost completely abolished"}, {"measurement": "P2ry12 expression, effect of the PLX5622 procedure", "setting": "[2]", "result": "significantly reduced"}, {"measurement": "Sox11 expression, effect of the microglia depletion procedure by itself", "setting": "[2]", "result": "not affected"}, {"measurement": "Tdo2 expression in PLX5622-treated mice", "setting": "[2]", "result": "significantly increased"}, {"measurement": "pla2g4e expression in PLX5622-treated mice", "setting": "[2]", "result": "significantly increased"}, {"measurement": "difference between effects of ECT on social exploration in PLX vs CDiet mice", "setting": "[3]; CUS-exposed, ECT 2.5 weeks", "result": "did not reach statistical significance"}, {"measurement": "social exploration, effect of microglia depletion by itself", "setting": "[3]; [9]", "result": "did not reduce"}, {"measurement": "anti-depressive effect of ECT under microglial depletion", "setting": "[4]; CUS-exposed, PLX5622 diet, 2.5-week course of ECT", "result": "markedly attenuated"}, {"measurement": "effect of ECT on sucrose preference in PLX diet mice", "setting": "[4]; CUS-exposed, PLX diet, ECT 3 times/week for 2.5 weeks", "result": "only a small increase"}, {"measurement": "development of CUS-induced depression", "setting": "[4]; PLX5622 diet, 5 weeks CUS, sucrose preference and social exploration", "result": "did not influence"}, {"measurement": "sucrose preference, effect of microglia depletion by itself", "setting": "[4]; [9]", "result": "did not reduce"}, {"measurement": "effect of ECT on hippocampal neurogenesis under microglia depletion", "setting": "[5]", "result": "completely prevented"}, {"measurement": "effect of ECT on hippocampal neurogenesis under microglia depletion", "setting": "[5]; listed as PLX", "result": "significantly reduced"}, {"measurement": "depletion of brain microglia", "setting": "[6]", "result": "near-complete depletion"}, {"measurement": "genes differentially regulated, PLX vs CDiet", "setting": "[7]; [10]", "result": 390, "unit": "genes"}, {"measurement": "genes down-regulated, PLX vs CDiet", "setting": "[7]; [10]", "result": 338, "unit": "genes"}, {"measurement": "genes up-regulated, PLX vs CDiet", "setting": "[7]; [10]", "result": 52, "unit": "genes"}, {"measurement": "genes differentially regulated between SHAM vs ECT in PLX-treated groups", "setting": "[7]; CUS-exposed mice", "result": "no genes were differentially regulated"}, {"measurement": "Log 2 (fold change) Con-Stress-Sham vs. PLX-Stress-Sham", "setting": "[7]; Cd40 transcript", "result": 0.159}, {"measurement": "Log 2 (fold change) Con-Stress-Sham vs. PLX-Stress-Sham", "setting": "[7]; Cd80 transcript", "result": 0.371}, {"measurement": "Log 2 (fold change) Con-Stress-Sham vs. PLX-Stress-Sham", "setting": "[7]; Cd86 transcript", "result": 2.092}, {"measurement": "Log 2 (fold change) Con-Stress-Sham vs. PLX-Stress-Sham", "setting": "[7]; Cd180 transcript", "result": 1.892}, {"measurement": "Log 2 (fold change) Con-Stress-Sham vs. PLX-Stress-Sham", "setting": "[7]; Cd276 transcript", "result": 0.019}, {"measurement": "Log 2 (fold change) Con-Stress-Sham vs. PLX-Stress-Sham", "setting": "[7]; Ctla4 transcript", "result": 0.100}, {"measurement": "Log 2 (fold change) Con-Stress-Sham vs. PLX-Stress-Sham", "setting": "[7]; Havcr2 (TIM-3) transcript", "result": 2.101}, {"measurement": "Log 2 (fold change) Con-Stress-Sham vs. PLX-Stress-Sham", "setting": "[7]; Lag-3 transcript", "result": 1.968}, {"measurement": "Log 2 (fold change) Con-Stress-Sham vs. PLX-Stress-Sham", "setting": "[7]; Lgals3 transcript", "result": 0.011}, {"measurement": "Log 2 (fold change) Con-Stress-Sham vs. PLX-Stress-Sham", "setting": "[7]; PD-L1 transcript", "result": 0.164}, {"measurement": "Log 2 (fold change) Con-Stress-Sham vs. PLX-Stress-Sham", "setting": "[7]; Pdcd1lg2 transcript", "result": "−0.373"}, {"measurement": "Log 2 (fold change) Con-Stress-Sham vs. PLX-Stress-Sham", "setting": "[7]; Pdcd1 transcript", "result": "−0.669"}, {"measurement": "Log 2 (fold change) Con-Stress-Sham vs. PLX-Stress-Sham", "setting": "[7]; Tdo2 transcript", "result": "−0.248"}, {"measurement": "Log 2 (fold change) Con-Stress-Sham vs. PLX-Stress-Sham", "setting": "[7]; Tigit transcript", "result": "−0.804"}, {"measurement": "Log 2 (fold change) Con-Stress-Sham vs. PLX-Stress-Sham", "setting": "[7]; Vtcn1 transcript", "result": "−0.905"}, {"measurement": "microglial depletion", "setting": "[8]", "result": "near-complete microglial depletion"}]}, {"smiles": "CN(C)CCC[C@@]1(c2ccc(F)cc2)OCc2cc(C#N)ccc21", "note": "[escitalopram]", "values": [{"measurement": "social exploration (SE) after vs before chronic treatment", "setting": "[3]; [11]", "result": "significantly elevated; also recorded: significant increase"}, {"measurement": "sucrose preference after vs before chronic treatment", "setting": "[4]; [11]", "result": "had no such effect"}]}]}
